Assay results as given in patent publication US6160017A, “Preventives and remedies for ulcerous colitis and/or crohn's disease” (Zaidan Hojin Biseibutsu Kagaku Kenkyu Kai, priority 1997, dated 2000).

Key:
[1] = tested on: rats; experiment: 3-month repeated administration toxicity test on rats; format: in vivo, rat (male Wister); conditions: 3 months
Protocol: Conagenin (100 mg/kg) was intraperitoneally administered repeatedly for 3 months to male Wister rats (aged 6 weeks; 3 rats per group) to evaluate its toxicity using a group dosed with physiological saline as a control. Tests were made for general symptoms, urinalysis, blood test, blood biochemical test, autopsy, organ weight and pathological test.
The judgment of the test items was conducted in accordance with "Guideline of Toxicity Testing Methods".

[2] = Single administration toxicity test on mice; format: in vivo, mouse; conditions: in vivo; mouse, intravenous
Protocol: (§1) Conagenin (500 mg/kg) was singly administered intravenously, intraperitoneally, subcutaneously or orally to mice and rats to investigate its toxicity.

[3] = tested on: Mouse; experiment: Single administration toxicity test on mice; format: in vivo
Protocol: as §1

[4] = tested on: acetic acid-induced rat ulcer models; experiment: Effect on acetic acid-induced rat ulcer model; format: in vivo, rat (male Donryu:CRJ); conditions: 50 mg/kg i.v.
Protocol: Morbid models were prepared by starving male Donryu:CRJ rats (aged 6 weeks; 9 rats per group) for 24 hours, incising each of their abdomens under etherization to ligate its colon, injecting a 10% aqueous solution (2 ml) of acetic acid into the digestive tract lumen thereof by means of a syringe equipped with a 25 G needle, further injecting air (3 ml) to discharge the acetic acid solution, and then suturing and closing the operated part. Conagenin was intravenously administered to the rats in a dose of 50 mg/kg 24 hours before the preparation of the models and right after the operation. After 24 hours, the rat models were slaughtered to take out their colons and recta. These organs were incised by 10 cm above from the anus to remove their contents. Thereafter, the weight of the organs was measured, and moreover the degree of mucosal disorder was visually observed. The degree of the tissue damage was evaluated using the grades "light", "medium" and "serious".

[5] = Single administration (acute) toxicity test on rats; format: in vivo; conditions: in vivo, rat
Protocol: as §1

[6] = tested on: Rat; experiment: as above; format: in vivo
Protocol: as §1

[7] = tested on: trinitrobenzenesulfonic acid (TNBS)-induced rat colitis models; experiment: Effect on trinitrobenzenesulfonic acid (TNBS)-induced rat colitis model; format: in vivo, rat (male Wister); conditions: for Wet weight of large intestine: conagenin 50 mg/kg i.v., salazosulfapyridine 300 mg/kg p.o., daily, untreated 1.571 ± 0.161, saline 1.723 ± 0.167; for Stage of lesion: number of rats that reached a subacute stage: saline group 4 rats; for Depth of invasion of the ulcer (lamina propria mucosae and submucosal tissue): saline group medium; for Percent change in wet weight against untreated group: untreated 100, TNBS and saline 110
Protocol: Morbid models were prepared by starving male Wister rats (aged 6 weeks; 7 rats per group) for 48 hours, inserting a catheter by 8 cm through the anus of each of the rats under anesthesia with pentobarbital to inject a solution (0.25 ml) with 2,4,6-trinitrobenzenesulfonic acid dissolved in 50% ethanol in a proportion of 80 mg/ml, stopping the anus for about 10 minutes and then allowing it to stand.
Conagenin was intravenously administered to the rats in a dose of 50 mg/kg. Salazosulfapyridine was orally administered as a control agent in a dose of 300 mg/kg. The administration of these test agents was carried out every day from the day before the administration of 2,4,6-trinitrobenzenesulfonic acid to the fourth day after the administration. The rat models were slaughtered at the fifth day after the administration to determine a change in the wet weight of their recta (8 cm) and make a judgment on the basis of the pathological findings thereof.

[8] = tested on: patients; conditions: double blind test; cited from earlier work
[9] = 100 mg/kg i.p., compared with saline control
[10] = 24 h before and right after operation, 9 rats per group
[11] = pathological findings of colon, 7 rats per group

SMILES: C[C@@H]([C@@H](C)O)[C@@H](O)C(=O)N[C@@](C)(CO)C(=O)O [Conagenin, (2S)N-[(2R,3S,4R)2,4-dihydroxy-3-methyl-pentanoyl]-2-methylserine]
- Death ([1]; 100 mg/kg i.p.): None
- All items tested (general symptoms, urinalysis, blood test, blood biochemical test, autopsy, organ weight, pathological test) [1, 9]: no significant change was observed
- Blood biochemical test [1, 9]: No marked change
- General symptoms [1, 9]: No marked change
- Hematological test [1, 9]: No marked change
- Pathological test [1, 9]: No marked change
- Urinalysis [1, 9]: No marked change
- Development of toxicity ([1]; efficacious dose of 100 mg/kg, rats): no development of toxicity was observed
- LD50 [2]: > 500 mg/kg
- Death ([3]; mice, single 500 mg/kg): No death was observed
- Abnormal finding of general symptoms ([3]; mouse, in vivo, 500 mg/kg): no abnormal finding of general symptoms
- Number of animals, grade of inflammation Light (1) [4, 10]: 5
- Number of animals, grade of inflammation Medium (2) [4, 10]: 3
- Number of animals, grade of inflammation Serious (3) [4, 10]: 1
- Grade of inflammation, mean ± SD ([4]; control (physiological saline) 2.38 ± 0.67): 1.50 ± 0.73
- Suppressing effect on the inflammatory ulcer compared with the control group ([4]; in words): high suppressing effect
- LD50 ([5]; ip, intraperitoneal): > 500 mg/kg
- LD50 ([5]; sc, subcutaneous): > 500 mg/kg
- LD50 ([5]; intravenous): > 500 mg/kg
- LD50 ([5]; oral): > 500 mg/kg
- LD50 ([5]; acute toxicity, rats, oral, subcutaneous, intraperitoneal and intravenous): ≥ 500 mg/kg
- Abnormal finding of general symptoms ([6]; rat, in vivo, 500 mg/kg): no abnormal finding of general symptoms
- Death ([6]; rats, single 500 mg/kg): No death was observed
- Inflammatory change (in words) [7]: exactly the same good result
- Therapeutic effect compared with salazosulfapyridine ([7]; conagenin 50 mg/kg i.v. vs salazosulfapyridine 300 mg/kg p.o.): marked therapeutic effect
- Wet weight of large intestine [7]: 1.572 ± 0.099 g
- Increase in wet weight of the large intestine (in words) ([7]; control (saline) 10%): No increase was observed
- Depth of invasion on lamina propria mucosae: number of animals, light [7, 11]: 2
- Depth of invasion on lamina propria mucosae: number of animals, no marked change [7, 11]: 5
- Depth of invasion on submucosal tissue: number of animals, no marked change [7, 11]: 7
- Depth of invasion on tunica muscularis: number of animals, no marked change [7, 11]: 7
- Findings of ulceration: number of animals, light [7, 11]: 2
- Findings of ulceration: number of animals, no marked change [7, 11]: 5
- Inflammatory change: number of animals, light [7, 11]: 1
- Inflammatory change: number of animals, no marked change [7, 11]: 6
- Stage of lesion: number of rats that reached a subacute stage [7]: 2 rats
- Depth of invasion of the ulcer (lamina propria mucosae and submucosal tissue) [7]: light
- Percent change in wet weight against untreated group [7]: 100%

SMILES: Nc1ccc(O)c(C(=O)O)c1 [mesalazine]
- Generalized amelioration rate [8]: 68.8%
- Incidence rate of the side effect [8]: 11.5%

SMILES: O=C(O)c1cc(/N=N/c2ccc(S(=O)(=O)Nc3ccccn3)cc2)ccc1O [salazosulfapyridine]
- Generalized amelioration rate [8]: 63.5%
- Incidence rate of the side effect [8]: 28.1%
- Wet weight of large intestine [7]: 1.641 ± 0.140 g
- Increase in wet weight of the large intestine ([7]; control (saline) 10%): 4%
- Depth of invasion on lamina propria mucosae: number of animals, light [7, 11]: 2
- Depth of invasion on lamina propria mucosae: number of animals, medium [7, 11]: 2
- Depth of invasion on lamina propria mucosae: number of animals, no marked change [7, 11]: 3
- Depth of invasion on submucosal tissue: number of animals, light [7, 11]: 2
- Depth of invasion on submucosal tissue: number of animals, no marked change [7, 11]: 5
- Depth of invasion on tunica muscularis: number of animals, no marked change [7, 11]: 7
- Findings of ulceration: number of animals, light [7, 11]: 2
- Findings of ulceration: number of animals, medium [7, 11]: 2
- Findings of ulceration: number of animals, no marked change [7, 11]: 3
- Inflammatory change: number of animals, light [7, 11]: 2
- Inflammatory change: number of animals, medium [7, 11]: 1
- Inflammatory change: number of animals, no marked change [7, 11]: 4
- Stage of lesion: number of rats that reached a subacute stage [7]: 4 rats
- Depth of invasion of the ulcer (lamina propria mucosae and submucosal tissue) [7]: medium
- Percent change in wet weight against untreated group [7]: 104%
